The structures appear in SMILES notation.

The assay deals with T1, Central CCK Receptors (Mus musculus, UniProt P56481).
T1 construct: from tissue; host or cells: cerebral cortex membranes of male CFLP mice (30-40 g)
T1 sequence (P56481 1-453): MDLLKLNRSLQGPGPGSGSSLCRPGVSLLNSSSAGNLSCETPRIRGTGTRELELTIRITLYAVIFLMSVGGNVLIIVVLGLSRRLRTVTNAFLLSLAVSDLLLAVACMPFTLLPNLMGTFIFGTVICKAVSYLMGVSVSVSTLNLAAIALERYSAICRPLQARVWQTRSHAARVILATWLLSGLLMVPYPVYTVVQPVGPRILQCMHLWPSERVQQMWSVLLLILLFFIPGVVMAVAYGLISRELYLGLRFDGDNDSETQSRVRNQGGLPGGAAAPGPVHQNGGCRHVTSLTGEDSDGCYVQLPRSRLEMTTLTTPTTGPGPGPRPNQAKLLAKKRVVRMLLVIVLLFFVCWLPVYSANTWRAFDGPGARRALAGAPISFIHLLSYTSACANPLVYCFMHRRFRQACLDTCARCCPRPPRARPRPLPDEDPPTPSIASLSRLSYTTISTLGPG
Briefly: Binding to central CCK receptors, displacement of tritiated pentagastrin from cerebral cortical membranes of male CFLP mice. To be noted: cerebral cortexes taken from male CFLP mice; 2 nM tritiated-pentagastrin. The arrangement: species or system mouse (male CFLP). The protocol: The biological activity of compounds of the present invention was evaluated employing an initial screening test which rapidly and accurately measured the binding of the tested compound to known CCK receptor sites. […] (See Hays et al, Neuropeptides 1:53-62, 1980; and Satuer et al, Science 208:1155-1156, 1980).
In this screening test, the cerebral cortices taken from male CFLP mice weighing between 30-40 g were dissected on ice, weighed, and homogenized in 10 volumes of 50 mM Tris-HCl buffer (pH 7.4 at 0°-4° C.). The resulting suspension was centrifuged, the supernate was discarded, and the pellet was washed by resuspension in Tris-HCl buffer followed by recentrifugation. The final pellet was resuspended in 20 volumes of […] Hepes buffer (pH 7.2 at 23° C.) containing 130 mM NaCl, […] KCl, […] MgCl2, […] EDTA, 5 mg/mL bovine albumin, and bacitracin (0.25 mg/mL).
In saturation studies, cerebral cortical membranes were incubated at 23° C. for 120 minutes in a final volume of 500 μL of Hepes incubation buffer (pH 7.2) together with […] tritiated-pentagastrin (Amersham International, England).
In the displacement experiments, membranes were incubated with a single concentration (2 nM) of ligand, together with increasing concentrations (10^-11 to […]) of competitive test compound. In each case, the nonspecific binding was defined as that persisting in the presence of the unlabeled octapeptide CCK26-33 (10^-6 M)
Following incubation, radioactivity bound to membranes was separated from that free in solution by rapid filtration through Whatman GF/B filters and washed three times with 4 mL of ice cold Tris-HCl buffer. Filters from samples incubated with tritiated-pentagastrin were placed in polyethylene vials with 4 mL of scintillation cocktail, and the radioactivity was estimated by liquid scintillation spectrometry (efficiency 47-52%).
Saturation curves for specific tritiated- pentagastrin binding to mouse cortical membranes were analyzed by the methods of Scatchard (Ann. New York Acad. Sci. 51:660-672, 1949, and Hill (J. Physiol. 40:IV-VIII, 1910), to provide estimates for the maximum number of binding sites (Bmax) and the equilibrium dissociation constant (Ka).
In displacement experiments, inhibition curves were analyzed by either logit-log plots or the iterative curve fitting computer program ALLFIT (DeLean, Munson and Redbard, 1978) to provide estimates of the IC50 and nH (apparent Hill coefficient) values).
The inhibition constant (Ki) of the test compound was then calculated according to the Cheng-Prusoff equation: [formula] where [L] is the concentration of radiolabel and Ka is the equilibrium dissociation constant.
Broadly, the Ki is a dissociation constant, usually derived from enzyme kinetics or from competition with a known ligand. Higher therefore signals weaker binding. For `C[C@](CC(=O)N[C@H](C(=O)O)c1ccccc1)(Cc1c[nH]c2ccccc12)NC(=O)OC1C2CC3CC(C2)CC1C3` (stereo partly drawn) [Example 90, N-[D-3-(1H-indol-3-ylmethyl)-3-methyl-N-[(tricyclo [3.3.1.1^3,7]dec-2-yloxy)carbonyl]-β-alanyl]-L-2-phenylglycine], the affinity corresponds to a Ki of 942 nM. `C[C@](Cc1c[nH]c2ccccc12)(NC(=O)OC1C2CC3CC(C2)CC1C3)C(=O)NC1CCCCC1C(=O)O` (stereo partly drawn) [Example 115, [1S-[α(S*),2B]] and [1R-[α(R*),28β]]^sP 2-[[3-(1H-indol-3-yl)-2-methyl-1-oxo-2-[(tricyclo[3.3.1.1^3,7]dec-2-yloxy)carbonyl]amino]propyl]amino]cyclhexanecarboxylic acid] gave a Ki of 1 nM. Compared with the last compound, the Ki is about 940-fold lower. In the case of `C[C@](Cc1c[nH]c2ccccc12)(NC(=O)OC1C2CC3CC(C2)CC1C3)C(=O)NC1(CO)CCCC1` (stereo partly drawn) [Example 119, Tricyclo[3.3.1.1^3,7]dec-2-yl ester (R) [2-[[1-(hydroxymethyl)cyclopentyl]amino]-1-(1H-indol-3-ylmethyl)-1-methyl-2-oxoethyl]carbamate], the Ki came to 180 nM. In the case of `C[C@](Cc1c[nH]c2ccccc12)(NC(=O)OC1C2CC3CC(C2)CC1C3)C(=O)NCCC(=O)N[C@H](Cc1ccccc1)C(=O)O` (stereo partly drawn) [Example 32, D-Phenylalanine, N-[N-[α-methyl-N-[(tricyclo-[3.3.1.1^3,7]dec-2-yloxy)carbonyl]-D-tryptophyl]-β-alanyl]-] it was 103 nM; in that of `C[C@@](Cc1c[nH]c2ccccc12)(NC(=O)OC1C2CC3CC(C2)CC1C3)C(=O)NCCC(=O)N[C@@H](Cc1ccccc1)C(N)=O` (stereo partly drawn) [Example 27, L-Phenylalaninamide α-methyl-N-[(tricyclo[3.3.1.1^3,7]-dec-2-yloxy)carbonyl]-L-tryptophy-β-alanyl-], 910 nM; in that of `C[C@](Cc1c[nH]c2ccccc12)(NC(=O)OC1C2CC3CC(C2)CC1C3)C(=O)N[C@H](C(=O)O)c1ccccc1` (stereo partly drawn) [Example 91, [R-(R*,S)]-α-[[3-(1H-indol-3-yl)-2-methyl-1-oxo-2-[[(tricyclo[3.3.1.1^3,7]dec-2-yloxy)carbonyl]amino]proipyl]amino]benzeneacetic acid, [R-(R*,S*)]-], 110 nM. Regarding `C[C@@](Cc1c[nH]c2ccccc12)(NC(=O)OC1C2CC3CC(C2)CC1C3)C(=O)NCCC(=O)N[C@@H](Cc1ccccc1)C(=O)OCc1ccccc1` (stereo partly drawn) [Example 31, Propanoic acid, 2-[[3-[[3-(1H-indol-3-yl)-2-methyl-1-oxo-2-[[(tricyclo[3.3.1.1^3,7]dec-2-yloxy)carbonyl]amino]propyl]amino]-1-oxopropyl]-amino]-3-phenyl-, phenylmethyl ester, [S-(R*,R*)]-], the affinity corresponds to a Ki of 1200 nM. This Ki lies about 11-fold higher than the previous one. In turn, `C[C@](Cc1c[nH]c2ccccc12)(NC(=O)OC1C2CC3CC(C2)CC1C3)C(=S)NCCc1ccccc1` (stereo partly drawn) [Example 9] displayed a Ki of 808 nM. This Ki and that of the compound before are within 1.5-fold of each other.

`COC[C@@H]1CCCN1NC(=O)[C@@](C)(Cc1c[nH]c2ccccc12)NC(=O)OC1C2CC3CC(C2)CC1C3` (stereo partly drawn) [Example 112, Tricyclo[3.3.1.1^3.7]dec-2-yl ester [2S-(R*,S*)1 N-[1-(1H-indol-3-ylmethyl)-2-[[2-(methoxymethyl)-1-pyrrolidinyl]amino]-1-methyl-2-oxoethyl]carbamate] gave a Ki of 73 nM.

`C[C@](CNC(=O)c1ccccc1)(Cc1c[nH]c2ccccc12)NC(=O)OC1C2CC3CC(C2)CC1C3` (stereo partly drawn) [Example 20, Carbamic acid, [2-(benzoylamino)-1-(1H-indol-3-ylmethyl)-1-methylethyl]-, tricyclo[3.3.1.1^3,7]dec-2-yl ester, (R)-] returned a Ki of 493 nM. Against the preceding compound, the Ki is about 6.8-fold higher. In the case of `CC(CNC(=O)O[C@@H]1C[C@@H]2CC[C@@]1(C)C2(C)C)(Cc1c[nH]c2ccccc12)C(=O)N[C@H](COC(=O)CCC(=O)O)Cc1ccccc1` (stereo partly drawn) [Example 56, Butanedioic acid, mono 2-[[2-(1H-indol-3-ylmethyl)-2-methyl-1-oxo-3-[[(1,7,7-trimethylbicyclo[2.2.1]hept-2-yloxy)carbonyl]-amino]propyl]amino]-3-phenylpropyl ester (Bicyclo system is 1S-endo, phenvlmethyl center is S. other center is RS)], the affinity, expressed as Ki, was 23 nM. As to `C[C@](Cc1c[nH]c2ccccc12)(NC(=O)OC1C2CC3CC(C2)CC1C3)C(=O)NCCC(=O)N[C@@H](Cc1ccccc1)C(N)=O` (stereo partly drawn) [Example 26, L-Phenylalaninamide, α-methyl-N-[(tricyclo [3.3.1.1^3,7]-dec-2-yloxy)carbonyl]-D-tryptophvl-β-alanyl-], affinity was put at a Ki of 92 nM. As to `CC1CCCCC1NC(=O)C(C)(Cc1c[nH]c2ccccc12)NC(=O)OC1C2CC3CC(C2)CC1C3` (stereo not drawn) [Example 117, Tricyclo[3.3.1.1^3,7]dec-2-yl ester[1-(1H-indol-3-ylmethyl)-1-methyl-2[(2-methylcyclohexyl)amino]-2-oxoethyl]carbamate], affinity was put at a Ki of 39 nM. For the compound `C[C@](Cc1c[nH]c2ccccc12)(NC(=O)OC1C2CC3CC(C2)CC1C3)C(=O)NCCC(=O)N[C@H](Cc1ccccc1)C(N)=O` (stereo partly drawn) [Example 25, D-Phenylalanamide, α-methyl-N-[(tricyclo[3.3.1.1^3,7]-dec-2-yloxv)carbonyl]-D-tryotophyl-β-alanyl-], the affinity corresponds to a Ki of 550 nM. Consider `CNC(=O)C1CCCCC1NC(=O)[C@@](C)(Cc1c[nH]c2ccccc12)NC(=O)OC1C2CC3CC(C2)CC1C3` (stereo partly drawn) [Example 123], for which the Ki is 17 nM. Take `C[C@](CC(=O)OCc1ccccc1)(Cc1c[nH]c2ccccc12)NC(=O)OC1C2CC3CC(C2)CC1C3` (stereo partly drawn) [Example 17]: affinity was put at a Ki of 17 nM.

The compound `C[C@](CNC(=O)CCCc1ccccc1)(Cc1c[nH]c2ccccc12)NC(=O)OC1C2CC3CC(C2)CC1C3` (stereo partly drawn) [Example 19, Carbamic acid, [1-(1H-indol-3-ylmethyl)-1-methyl-2-[(1-oxo-4-phenylbutyl)amino]ethyl]-, tricyclo-[3.3.1.1^3,7]dec-2-yl ester (R)-] had a Ki of 353 nM. `C[C@](CNC(=O)CCc1ccccc1)(Cc1c[nH]c2ccccc12)NC(=O)OC1C2CC3CC(C2)CC1C3` (stereo partly drawn) [Example 21] yielded a Ki greater than 100 nM.

Regarding `C[C@@](Cc1c[nH]c2ccccc12)(NC(=O)OC1C2CC3CC(C2)CC1C3)C(=O)NCCC(=O)N[C@@H](Cc1ccccc1)C(=O)O` (stereo partly drawn) [Example 34, L-Phenylalanine, N-[N-[α-methyl-N-[(tricyclo-[3.3.1.1^3,7]dec-2-yloxy)carbonyl]-L-tryptophyl]-β-alanyl]-], the affinity corresponds to a Ki of 560 nM. `O=C(N[C@@H](CN[C@H](CO)Cc1ccccc1)Cc1c[nH]c2ccccc12)OC1C2CC3CC(C2)CC1C3` (stereo partly drawn) [Example 1, Tricyclo[3.3.1.1^3,7]dec-2-yl[S-(R)]-[2-[[1 - (hydroxy-methyl)-2-phenylethyl]amino]-1-(1H-indol-3-ylmethyl)ethyl]carbamate] came in with a Ki of 11500 nM.

For the compound `C[C@](Cc1c[nH]c2ccccc12)(NC(=O)OC1C2CC3CC(C2)CC1C3)C(=O)NCCC(=O)N[C@H](CO)Cc1ccccc1` (stereo partly drawn) [Example 23, Carbamic acid, [2-[[3-[[1-(hydroxymethyl)-2-phenyl-ethyl]amino]-3-oxopropyl]amino]-1-(1H-indol-3-ylmethyl)-1-methyl-2-oxoethyl]-, tricyclo-[3.3.1.1^3,7]dec-2-vl ester. [R-(R*.S*)]-], the Ki was determined as 800 nM.

For the origin of these results see patent publication US5846942A, “Cholecystokinin antagonists, their preparation and therapeutic use” (Warner-Lambert Company, priority 1996, dated 1998).
